Test results taken from patent publication US7411083B2, “Substituted acetic acid derivatives” (Wyeth, priority 2003, dated 2008).
pIC50: −log10 of the molar value.

Key:
human PAI-1 = human PAI-1 (Homo sapiens, UniProt P05121); assay: Assay for determining the IC50 of inhibition of PAI-1 (active PAI-1 bound to tPA-coated plate, 33B8 antibody detection); assay type: biochemical; conditions: values carry suffix (K), not explained; test compounds 1-50 μM, pH 7.5
Protocol: Assay for determining the IC50 of inhibition of PAI-1. This assay is based upon the non-SDS dissociable interaction between Tpa and active PAI-1. Assay plates are initially coated with human Tpa (10 μg/ml). Test compounds are dissolved in DMSO at 10 Mm, then diluted with physiologic buffer (Ph 7.5) to a final concentration of 1-50 μM. The test compounds are incubated with human PAI-1 (50 ng/ml) for 15 minutes at room temperature. The Tpa-coated plate is washed with a solution of 0.05% Tween 20 and 0.1% BSA, then the plate is blocked with a solution of 3% BSA. An aliquot of the test compound/PAI-1 solution is then added to the Tpa-coated plate, incubated at room temperature for 1 hour, and washed. Active PAI-1 bound to the plate is assessed by adding an aliquot of a 1:1000 dilution of the 33B8 monoclonal antibody against human PAI-1, and incubating the plate at room temperature for 1 hour (Molecular Innovations, Royal Oak, Mich.). The plate is again washed, and a solution of goat anti-mouse IgG-alkaline phosphatase conjugate is added at a 1:50,000 dilution in goat serum. The plate is incubated 30 minutes at room temperature, washed, and a solution of alkaline phosphatase substrate is added. The plate is incubated 45 minutes at room temperature, and color development is determined at OD405 nm. The quantitation of active PAI-1 bound to Tpa at varying concentrations of the test compound is used to determine the IC50. Results are analyzed using a logarithmic best-fit equation. The assay sensitivity is 5 ng/ml of human PAI-1 as determined from a standard curve ranging from 0-100 ng/ml.

[1] = biological target: T1, recombinant human plasminogen activator inhibitor-1 (PAI-1) (Homo sapiens, UniProt P05121); assay: Screening for PAI-1 inhibition (residual tPA activity, Spectrozyme-tPA chromogenic substrate); assay type: biochemical; conditions: test compound at 100 Um; pH 6.6 buffer, 140 nM PAI-1, 70 nM tPA
T1 construct: purchased Molecular Innovations, Royal Oak, Mich
T1 sequence (P05121 24-402): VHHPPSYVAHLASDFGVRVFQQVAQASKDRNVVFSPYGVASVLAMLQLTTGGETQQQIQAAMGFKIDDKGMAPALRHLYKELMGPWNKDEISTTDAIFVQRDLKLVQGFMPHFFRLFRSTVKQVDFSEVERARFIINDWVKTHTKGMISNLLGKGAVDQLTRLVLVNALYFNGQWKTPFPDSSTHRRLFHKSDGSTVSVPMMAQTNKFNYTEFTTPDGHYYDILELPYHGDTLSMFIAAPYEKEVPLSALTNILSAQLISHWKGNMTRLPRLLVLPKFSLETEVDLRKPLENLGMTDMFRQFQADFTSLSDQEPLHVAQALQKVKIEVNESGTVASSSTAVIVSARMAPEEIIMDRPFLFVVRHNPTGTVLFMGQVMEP
In short: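 PAI-1 at 140 nM, pH 6.6 buffer, preincubated 1 h at room temperature with compound (1-100 μM final, ≤0.2% DMSO), then 70 nM tPA added for 30 min. Residual tPA activity read by Spectrozyme-tPA absorbance at 405 nm at 0 and 60 min. Inhibition taken as residual tPA activity.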

Chain of human PAI-1 (P05121 24-402): as above

pIC50 (human PAI-1)	inhibition at 100 µM [1]	SMILES
5.03	82%	Cn1cc(/C=N/OCC(=O)O)c2cc(OCc3ccc(C(F)(F)F)cc3)ccc21 [Compound 32, ({[(1E)-(1-methyl-5-{[4-(trifluoromethyl)benzyl]oxy}-1H-indol-3-yl)methylidene]amino}oxy)acetic acid]
5.73	82%	O=C(O)CO/N=C/c1cn(Cc2ccccc2)c2ccc(OCc3ccc(C(F)(F)F)cc3)cc12 [Compound 3, ({[(1E)-(1-benzyl-5-{[4-(trifluoromethyl)benzyl]oxy}-1H-indol-3-yl)methylidene]amino}oxy)acetic acid]
	88%	Cc1cccc(COc2cc(/C=N/OCC(=O)O)cc(OCc3cccc(C)c3)c2)c1 [Compound 148, {[((1E)-{3,5-bis[(3-methylbenzyl)oxy]phenyl}methylidene)amino]oxy}acetic acid]
	96%	O=C(O)CO/N=C/c1cc(OCc2ccc(F)cc2)ccc1OCc1ccc(F)cc1 [Compound 153, {[((1E)-{2,5-bis[(4-fluorobenzyl)oxy]phenyl}methylidene)amino]oxy}acetic acid]
	88%	Cc1cccc(COc2cccc(/C=N/OCC(=O)O)c2OCc2cccc(C)c2)c1 [Compound 138, {[((1E)-{2,3-bis[(3-methylbenzyl)oxy]phenyl}methylidene)amino]oxy}acetic acid]
4.77	85%	O=C(O)CO/N=C/c1cn(Cc2ccccc2)c2ccc(OCc3ccc(Br)cc3)cc12 [Compound 9, {[((1E)-{1-benzyl-5-[(4-bromobenzyl)oxy]-1H-indol-3-yl}methylidene)amino]oxy}acetic acid]
	5%	O=C(O)CO/N=C/c1ccc(-c2ccc(OCc3cccc(Cl)c3)cc2)cc1 [Compound 104, {[((1E)-{4′-[(3-chlorobenzyl)oxy]-1,1′-biphenyl-4-yl}methylidene)amino]oxy}acetic acid]
	59%	O=C(O)CO/N=C/c1cccc(-c2ccc(OCc3ccc(C(F)(F)F)cc3)cc2)c1 [Compound 73, ({[(1E)-(4′-{[4-(trifluoromethyl)benzyl]oxy}-1,1′-biphenyl-3-yl)methylidene]amino}oxy)acetic acid]
	68%	O=C(O)CO/N=C/c1ccc(C#CCOc2cc(Cl)cc(Cl)c2)cc1 [Compound 165, {[((1E)-{4-[3-(3,5-dichlorophenoxy)prop-1-ynyl]phenyl}methylidene)amino]oxy}acetic acid]
	79%	O=C(O)CO/N=C/c1cccc(OCc2cccc(Br)c2)c1OCc1cccc(Br)c1 [Compound 137, {[((1E)-{2,3-bis[(3-bromobenzyl)oxy]phenyl}methylidene)amino]oxy}acetic acid]
